We go through 11 compounds from ChEMBL document CHEMBL1201862, “PubChem BioAssay data set” (2004).

Holding throughout (assay type): functional
Assay [1] can be described thus: non-specific 3'UTR reporter inhibition in Clone20-Shn3RL – cell-based, Renilla luciferase, cherry-picked, counter-screen for Shn3 inhibitor project, dose response (AID 624133).
A short description of assay [2]: reduction of Shn3 3'UTR-driven luciferase in osteoblasts – cell-based, Clone20 osteoblasts, firefly luciferase, cherry-picked, dose response (AID 624132).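 Also: firefly luciferase luminescence from reporter carrying the Shn3 3'UTR in osteoblasts.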
The next assay deals with T1, Protein skinhead-1 (Caenorhabditis elegans, UniProt P34707).
T1 sequence (P34707 whole entry): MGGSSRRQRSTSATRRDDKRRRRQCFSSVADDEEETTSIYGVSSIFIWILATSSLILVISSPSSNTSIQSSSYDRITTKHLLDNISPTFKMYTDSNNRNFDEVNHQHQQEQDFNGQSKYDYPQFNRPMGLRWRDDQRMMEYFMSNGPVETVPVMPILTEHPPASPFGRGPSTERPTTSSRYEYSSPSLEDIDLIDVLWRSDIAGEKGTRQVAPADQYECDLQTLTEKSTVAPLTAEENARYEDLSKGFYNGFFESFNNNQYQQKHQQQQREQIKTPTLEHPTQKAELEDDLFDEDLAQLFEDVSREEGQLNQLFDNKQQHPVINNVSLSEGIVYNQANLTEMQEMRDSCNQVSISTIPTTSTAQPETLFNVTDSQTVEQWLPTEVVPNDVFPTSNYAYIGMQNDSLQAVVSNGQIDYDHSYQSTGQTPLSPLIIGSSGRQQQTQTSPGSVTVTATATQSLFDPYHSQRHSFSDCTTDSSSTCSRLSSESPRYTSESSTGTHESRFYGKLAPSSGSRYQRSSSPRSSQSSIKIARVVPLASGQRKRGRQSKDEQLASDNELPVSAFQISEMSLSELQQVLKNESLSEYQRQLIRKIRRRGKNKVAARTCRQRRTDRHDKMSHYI

The target in assay [3] is T2, High affinity choline transporter 1 (Homo sapiens, UniProt Q9GZV3).
T2 sequence (Q9GZV3 whole entry): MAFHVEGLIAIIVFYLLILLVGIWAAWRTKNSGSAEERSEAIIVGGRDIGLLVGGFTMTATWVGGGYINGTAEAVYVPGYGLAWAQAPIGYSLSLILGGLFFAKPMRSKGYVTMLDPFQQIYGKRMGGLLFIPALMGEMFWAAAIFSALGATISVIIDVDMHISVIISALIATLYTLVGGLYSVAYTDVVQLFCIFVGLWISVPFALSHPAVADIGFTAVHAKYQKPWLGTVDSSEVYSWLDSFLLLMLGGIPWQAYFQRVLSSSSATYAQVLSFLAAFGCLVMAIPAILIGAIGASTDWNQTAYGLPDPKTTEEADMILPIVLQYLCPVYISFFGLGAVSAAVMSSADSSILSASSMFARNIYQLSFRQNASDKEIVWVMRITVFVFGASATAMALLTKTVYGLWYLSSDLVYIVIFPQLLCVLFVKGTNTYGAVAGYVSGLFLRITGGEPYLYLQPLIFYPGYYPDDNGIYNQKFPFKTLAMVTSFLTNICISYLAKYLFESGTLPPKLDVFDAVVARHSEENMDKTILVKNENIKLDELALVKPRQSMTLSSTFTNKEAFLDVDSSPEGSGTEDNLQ
As to the kind of experiment: human choline transporter blockers, potency – cell-based, 5-point CRC, membrane potential dye, dose response (AID 504840).

Assay [4] in a line: microbe, parasite or virus in culture. To be noted: Mycobacterium tuberculosis.
In assay [5] the target is T3, Corticotropin-releasing factor receptor 2/Corticotropin-releasing factor-binding protein (Homo sapiens, UniProt P24387+Q13324).
T3 sequence (Q13324 whole entry): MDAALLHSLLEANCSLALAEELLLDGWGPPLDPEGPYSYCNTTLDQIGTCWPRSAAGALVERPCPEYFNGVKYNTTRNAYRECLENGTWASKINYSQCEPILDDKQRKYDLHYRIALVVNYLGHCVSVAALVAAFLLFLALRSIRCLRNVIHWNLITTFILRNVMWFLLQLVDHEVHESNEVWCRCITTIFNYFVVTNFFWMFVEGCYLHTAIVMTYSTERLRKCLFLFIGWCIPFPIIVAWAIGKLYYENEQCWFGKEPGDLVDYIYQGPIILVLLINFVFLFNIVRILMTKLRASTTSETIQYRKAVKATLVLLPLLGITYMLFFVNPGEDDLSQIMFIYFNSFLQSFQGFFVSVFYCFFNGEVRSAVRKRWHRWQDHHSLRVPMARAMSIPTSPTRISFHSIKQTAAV
T3 sequence (P24387 whole entry): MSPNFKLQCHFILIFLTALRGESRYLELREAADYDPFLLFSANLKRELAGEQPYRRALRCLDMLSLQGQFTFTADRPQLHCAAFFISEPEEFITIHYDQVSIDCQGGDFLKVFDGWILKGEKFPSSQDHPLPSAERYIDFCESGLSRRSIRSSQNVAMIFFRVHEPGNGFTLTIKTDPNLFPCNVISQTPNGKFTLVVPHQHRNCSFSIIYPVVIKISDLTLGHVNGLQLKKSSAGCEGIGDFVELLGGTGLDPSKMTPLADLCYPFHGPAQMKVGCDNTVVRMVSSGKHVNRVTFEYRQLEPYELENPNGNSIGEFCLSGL
Nature of the assay: Dose Response confirmation of uHTS hits for small molecule antagonists of the CRF-binding protein and CRF-R2 receptor complex. Particulars: read-out: IC50_Mean.

Assay [6] has as its target T3, Corticotropin-releasing factor receptor 2/Corticotropin-releasing factor-binding protein. As to the kind of experiment: activators of CRF receptor 2 with binding protein – uHTS hits, confirmation (AID 602473). To be noted: read-out: EC50_Mean.
A short description of assay [7]: blockade of melanocortin 4 receptor signaling – cell-based, plate reader, cherry pick, counter-screen for LGR2 antagonist project, dose response (AID 743444).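 Also: transfected HEK 293 cells stimulated with alpha-MSH peptide; potency of inhibitors of the alpha-MSH evoked signal.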
Assay [8] is described as follows: blockers of bursicon-stimulated LGR2 cAMP reporter – cell-based, HEK293, CRE-luciferase reporter, cherry pick, set 2, dose response (AID 743343).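 Also: transfected cells were stimulated with diluted bursicon conditioned medium after compound addition.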
The nature of assay [9]: viability of uninfected HEp-2 cells – cell-based, HTS, cytotoxicity control for RSV inhibitor project, dose response (AID 2410). To be noted: human respiratory syncytial virus.

Active and inactive are the calls of the source.

For the compound `CC(C)CCNC(=O)c1cc2c(O)nc3ccccc3c2s1`, the values for the AC50 in [1] and in [2] were 18.4 µM (active) and 41.5 µM (active), respectively.
Consider `FC(F)(F)c1ccccc1Cc1c(-c2ccccc2)nc2ccc(Br)cn12`, for which, on Protein skinhead-1, the IC50 is > 100 µM (inactive).
On to `CC1CCN(S(=O)(=O)c2nnc(NC(=O)c3cccc([N+](=O)[O-])c3)s2)CC1`, for which the IC50 in assay [3] is 11.5 µM (active).
For `CCOC(=O)c1cccc(NC(=O)CCS(=O)(=O)c2cccc3nsnc23)c1`, the IC50 in assay [3] is 14.8 µM (active).
On the same count and under the same terms, then `CCOC(=O)CC1(CC(=O)OCC)NC(=O)c2c(C)sc(C(=O)OCC)c2N1`, with 13.8 µM (active).
As for `O=C(CCl)Nc1nccs1`, the CC50 in assay [4] is 13.7 µM (active). Besides, the IC50 in assay [5] is > 47.1 µM (inactive). Besides, the EC50 in assay [6] is > 53 µM (inactive).
On to `CN(C)c1ccc(C2NC(=O)c3ccccc3N2)cc1` (stereo unspecified), for which the AC50 is 9.95 µM (active) in [7] and 7.27 µM (active) in assay [8].
On to `CSCCCN=C(S)N1CCN(c2ccc(C(C)=O)cc2)CC1`, for which the CC50 in assay [4] was > 40 µM (active).
For the compound `O=C(Nc1nc2c(ccc3ccccc32)s1)c1ccco1`, the CC50 in assay [9] is 14.8 µM (active). Moreover, the IC50 at Protein skinhead-1 was 14.9 µM (active).
On to `CCCn1nc2cc(C(=O)NCc3ccc(C)cc3)ccc2c1OCC`, for which, in assay [3], the IC50 was 8.18 µM (active).
As to `CCCOc1ccc(C(CC(=O)O)NC(=O)CC(c2ccccc2)c2ccccc2)cc1` (stereo unspecified), the IC50 in [3] was 12 µM (active).
